Assay results as given in patent EP0302824A2 (priority 1987, dated 1989).
Like-named read-outs stand apart in the source and are kept apart here.

What was measured:
[1] = Time release of terbufos from coated maize seeds into buffer; assay type: physicochemical
corn rootworms = assay: Field control of corn rootworms by insecticide/polymer combinations applied to the seed; assay type: in vivo, Diabrotica spp.; settings: maize G 4733, 0-6 scale, 63 days after planting
[2] = Solubilization of terbufos in individual and combined surfactant solutions; settings: for Terbufos Concentration (ppm) Individual Surfactant: maximum 100 ppm terbufos in solution
[3] = Solubility of terbufos in neat surfactants and PEGs, judged by eye
[4] = Solubility of terbufos in water with increasing concentration of surfactant or association polymer
[5] = Release of terbufos from coated corn cob granules into buffer; assay type: physicochemical
[6] = assay type: physicochemical; settings: coated maize kernels in 200 ml water, 20°C, 50 rpm
[7] = not given; remark: listed apart in the source
[8] = Sw = solubility in water
[9] = assay type: physicochemical; settings: sand column; 50 mm artificial rainfall in 48 hours; 5 g/kg a.i.

CNC(=O)Oc1cccc2c1OC(C)(C)C2 [carbofuran]
Solubility of Carbofuran, ppm (1000 ppm Alipal EP110): 349 ppm
Solubility of Carbofuran, ppm (1000 ppm Ethomeen T/15): 436 ppm
Solubility of Carbofuran, ppm (1000 ppm Pluronic F68): 287 ppm
Solubility of Carbofuran, ppm (1000 ppm Triton N101): 370 ppm
increase in solubility in surfactant solution over that in water (Ethomeen T/15, 1000 ppm): 30%
Solubility of Carbofuran, ppm (H₂O): 330 ppm
increase in solubility in surfactant solution over that in water (Triton (N101), 1000 ppm): 10%

CCOP(=S)(OCC)SCSC(C)(C)C [terbufos]
Terbufos Concentration (ppm), Time Release from Coated Seeds ([1]; Association Polymer (no PVAc), Buffer pH = 5.6, 0.5 hour): 370 ppm
Terbufos Concentration (ppm), Time Release from Coated Seeds ([1]; Association Polymer (no PVAc), Buffer pH = 5.6, 2 hours): 350 ppm
Terbufos Concentration (ppm), Time Release from Coated Seeds ([1]; Association Polymer (no PVAc), Buffer pH = 5.6, 4 hours): 360 ppm
Terbufos Concentration (ppm), Time Release from Coated Seeds ([1]; Association Polymer+PVAc, Buffer pH 5.6, 0.5 hour): 130 ppm
Terbufos Concentration (ppm), Time Release from Coated Seeds ([1]; Association Polymer+PVAc, Buffer pH 5.6, 2 hours): 147 ppm
Terbufos Concentration (ppm), Time Release from Coated Seeds ([1]; Association Polymer+PVAc, Buffer pH 5.6, 4 hours): 210 ppm
Terbufos Concentration (ppm), Time Release from Coated Seeds ([1]; Association Polymer+PVAc, Buffer pH 5.6, 26 hours): 163 ppm
Terbufos Concentration (ppm), Time Release from Coated Seeds ([1]; Association Polymer+PVAc, Buffer pH 5.6, 69.5 hours): 122 ppm
Terbufos Concentration (ppm), Time Release from Coated Seeds ([1]; Association Polymer+PVAc, Buffer pH 8.3, 0.5 hour): 210 ppm
Terbufos Concentration (ppm), Time Release from Coated Seeds ([1]; Association Polymer+PVAc, Buffer pH 8.3, 2 hours): 240 ppm
Terbufos Concentration (ppm), Time Release from Coated Seeds ([1]; Association Polymer+PVAc, Buffer pH 8.3, 4 hours): 260 ppm
Terbufos Concentration (ppm), Time Release from Coated Seeds ([1]; Association Polymer+PVAc, Buffer pH=3.3, 2 hours): 22 ppm
Terbufos Concentration (ppm), Time Release from Coated Seeds ([1]; Association Polymer+PVAc, Buffer pH=3.3, 4 hours): 7.6 ppm
Terbufos Concentration (ppm), Time Release from Coated Seeds ([1]; PVAc, Buffer pH=5.6, 4 hours): 1.9 ppm
Terbufos Concentration (ppm), Time Release from Coated Seeds ([1]; PVAc, Buffer pH=5.6, 26 hours): 2.4 ppm
Ratings for corn rootworm damage (corn rootworms; Granule, 0.1 g m⁻¹): 2.2
Ratings for corn rootworm damage (corn rootworms; seed treatment Association Polymer, 10 g/kg): 2.6
Ratings for corn rootworm damage (corn rootworms; seed treatment PVAc/PVAl, 10 g/kg): 3.1
Ratings for corn rootworm damage (corn rootworms; seed treatment PVAc/PVAl, 30 g/kg): 2.8
Terbufos Concentration (ppm) Individual Surfactant ([2]; A2, 1000 ppm): 2.0 ppm
Terbufos Concentration (ppm) Combination Surfactant With C2 ([2]; A2 with C2, 5 ml portions (1000 ppm) of each, maximum 100 ppm): 38 ppm
Terbufos Concentration (ppm) Combination Surfactant With N3 ([2]; A2 with N3, 5 ml portions (1000 ppm) of each, maximum 100 ppm): 13 ppm
Terbufos Concentration (ppm) Individual Surfactant ([2]; A4, 1000 ppm): 3.4 ppm
Terbufos Concentration (ppm) Combination Surfactant With N3 ([2]; A4 with N3, 5 ml portions (1000 ppm) of each, maximum 100 ppm): 28 ppm
Terbufos Concentration (ppm) Individual Surfactant ([2]; C2, 1000 ppm): 12 ppm
Terbufos Concentration (ppm) Combination Surfactant ([2]; C2 with N3, 5 ml portions (1000 ppm) of each, maximum 100 ppm): 64 ppm
Terbufos Concentration (ppm) Individual Surfactant ([2]; N3, 1000 ppm): 65 ppm
Terbufos Concentration (ppm) Individual Surfactant ([2]; N7, 1000 ppm): 1.1 ppm
Terbufos Concentration (ppm) Combination Surfactant With C2 ([2]; N7 with C2, 5 ml portions (1000 ppm) of each, maximum 100 ppm): 6.7 ppm
Terbufos Concentration (ppm) Combination Surfactant With N3 ([2]; N7 with N3, 5 ml portions (1000 ppm) of each, maximum 100 ppm): 54 ppm
Terbufos Concentration (ppm) Individual Surfactant ([2]; N8, 1000 ppm): 1.2 ppm
Terbufos Concentration (ppm) Combination Surfactant With C2 ([2]; N8 with C2, 5 ml portions (1000 ppm) of each, maximum 100 ppm): 39 ppm
Terbufos Concentration (ppm) Combination Surfactant With N3 ([2]; N8 with N3, 5 ml portions (1000 ppm) of each, maximum 100 ppm): 40 ppm
Terbufos Concentration (ppm) Individual Surfactant ([2]; N10, 1000 ppm): 0.7 ppm
Terbufos Concentration (ppm) Combination Surfactant With C2 ([2]; N10 with C2, 5 ml portions (1000 ppm) of each, maximum 100 ppm): 36 ppm
Terbufos Concentration (ppm) Combination Surfactant With N3 ([2]; N10 with N3, 5 ml portions (1000 ppm) of each, maximum 100 ppm): 38 ppm
Terbufos Concentration (ppm) Individual Surfactant ([2]; N11, 1000 ppm): 0.5 ppm
Terbufos Concentration (ppm) Combination Surfactant With C2 ([2]; N11 with C2, 5 ml portions (1000 ppm) of each, maximum 100 ppm): 9.5 ppm
Terbufos Concentration (ppm) Combination Surfactant With N3 ([2]; N11 with N3, 5 ml portions (1000 ppm) of each, maximum 100 ppm): 24 ppm
solubility in neat surfactants (no water present) or polyethylene glycols, judged by eye ([3]; 5 µl terbufos in 200 µl of Cl, C2, C4, C7, Al, N1, N4, N5, N6, N8, N12, N24, N25, N26, PEG 200 or PEG 400): Soluble
solubility in neat surfactants (no water present), judged by eye ([3]; 5 µl terbufos in 200 µl of anionic A2, A3, A5 or A6): Insoluble
terbufos concentration ([4]; 575 ppm surfactant a) (N3, Triton N101)): 64 ppm
terbufos concentration ([4]; 603 ppm surfactant portion b) (half of 1206 ppm 1:1 association polymer PA 5000:N3)): 52 ppm
Terbufos Concentration (ppm) ([5]; Buffer = 10 ml (Triton = 1000 ppm), 0.5 hours): 61 ppm
Terbufos Concentration (ppm) ([5]; Buffer = 10 ml (Triton = 1000 ppm), 1 hour): 86 ppm
Terbufos Concentration (ppm) ([5]; Buffer = 10 ml (Triton = 1000 ppm), 2 hours): 104 ppm
Terbufos Concentration (ppm) ([5]; Buffer = 10 ml (Triton = 1000 ppm), 3 hours): 81 ppm
Terbufos Concentration (ppm) ([5]; Buffer = 10 ml (Triton = 1000 ppm), 4 hours): 60 ppm
Terbufos Concentration (ppm) ([5]; Buffer = 10 ml (Triton = 1000 ppm), 5 hours): 60 ppm
Terbufos Concentration (ppm) ([5]; Buffer = 20 ml (Triton = 500 ppm), 0.5 hours): 53 ppm
Terbufos Concentration (ppm) ([5]; Buffer = 20 ml (Triton = 500 ppm), 1 hour): 39 ppm
Terbufos Concentration (ppm) ([5]; Buffer = 20 ml (Triton = 500 ppm), 3 hours): 34 ppm
Terbufos Concentration (ppm) ([5]; Buffer = 20 ml (Triton = 500 ppm), 4 hours): 44 ppm
Terbufos Concentration (ppm) ([5]; Buffer = 20 ml (Triton = 500 ppm), 5 hours): 51 ppm
Terbufos Concentration (ppm) ([5]; Buffer = 20 ml (Triton = 500 ppm), 22 hours): 29 ppm
Terbufos Concentration (ppm) ([5]; Buffer = 100 ml (Triton = 100 ppm), 0.25 hours): 2.7 ppm
Terbufos Concentration (ppm) ([5]; Buffer = 100 ml (Triton = 100 ppm), 0.5 hours): 3.2 ppm
Terbufos Concentration (ppm) ([5]; Buffer = 100 ml (Triton = 100 ppm), 1 hour): 3.3 ppm
Terbufos Concentration (ppm) ([5]; Buffer = 100 ml (Triton = 100 ppm), 1.5 hours): 4.3 ppm
Terbufos Concentration (ppm) ([5]; Buffer = 100 ml (Triton = 100 ppm), 2 hours): 4.7 ppm
Terbufos Concentration (ppm) ([5]; Buffer = 100 ml (Triton = 100 ppm), 3 hours): 4.6 ppm
Terbufos Concentration (ppm) ([5]; Buffer = 100 ml (Triton = 100 ppm), 4 hours): 5.9 ppm
Terbufos Concentration (ppm) ([5]; Buffer = 100 ml (Triton = 100 ppm), 5 hours): 5.5 ppm
Terbufos Concentration (ppm) ([5]; Buffer = 100 ml (Triton = 100 ppm), 6 hours): 5.1 ppm
Terbufos Concentration (ppm) ([5]; Buffer = 100 ml (Triton = 100 ppm), 7 hours): 6.7 ppm
Terbufos Concentration (ppm) ([5]; Buffer = 100 ml (Triton = 100 ppm), 28 hours): 7.5 ppm

CCOP(=S)(OCC)Oc1nc(Cl)n(C(C)C)n1 [isazofos]
Released Active Substance in % After 4 Hours Association Polymer 17.1 [6]: 80.8%
Released Active Substance in % After 4 Hours Standard Polymer 18.1 [6]: 63.5%
Solubility (ppm) ([7]; isazophos in H₂O): 62 ppm
Solubility (ppm) ([7]; isazophos, 1000 ppm A1, HLB ∼30): 84 ppm
Solubility (ppm) ([7]; isazophos, 1000 ppm A2, HLB ∼30): 58 ppm
Solubility (ppm) ([7]; isazophos, 1000 ppm A4, HLB ∼30): 180 ppm
Solubility (ppm) ([7]; isazophos, 1000 ppm A5, HLB ∼30): 11 ppm
Solubility (ppm) ([7]; isazophos, 1000 ppm AM1): 98 ppm
Solubility (ppm) ([7]; isazophos, 1000 ppm N3, HLB 13.4): 260 ppm
Solubility (ppm) ([7]; isazophos, 1000 ppm N9, HLB 22): 130 ppm
Solubility (ppm) ([7]; isazophos, 1000 ppm N11, HLB 29): 92 ppm
Solubility (ppm) ([7]; isazophos, 1000 ppm N18, HLB 17.3): 130 ppm
Solubility (ppm) ([7]; isazophos, 1000 ppm N24, HLB 15.0): 170 ppm
Sw in ppm [8]: 150 ppm
% a.i. Analyzed in "Traditional" Coats Kernels [9]: 68.2%
% a.i. Analyzed in "Traditional" Coats Leachate [9]: < 0.5%
% a.i. Analyzed in "Traditional" Coats Sand [9]: 22.9%
% a.i. Analyzed in Association Polymer Kernels [9]: 30.1%
% a.i. Analyzed in Association Polymer Leachate [9]: 34.9%
% a.i. Analyzed in Association Polymer Sand [9]: 39.7%
